Reference: patent US5776944A, “7-(4-aminomethyl-3-methyloxyiminopyrroplidin-1-yl)-1-cyclopropyl-6-flu oro-4-oxo-1,4-dihydro-1,8-naphthyridine-3-carboxylic acid and the process for the preparation thereof” (LG Chemical Ltd., priority 1994, dated 1998)
Where two headings read alike, the source gives them in different places.

Experiments:
[1] = test system: Staphylococcus aureus 6538p; experiment: In vitro antibacterial activity (MIC, agar medium dilution), Biological Example 4; type: cell-based; details: 18 h, Table 32, ratio of weight without considering molecular weight, read-out: Minimum Inhibitory Concentration: MIC
Staphylococcus aureus 77 = experiment: as above; type: cell-based; details: 18 h; Staphylococcus aureus 77, Table 32, ratio of weight; read-out: Minimum Inhibitory Concentration: MIC
[2] = test system: Staphylococcus epidermidis 887E; experiment: as above; type: cell-based; details: 18 h, read-out: Minimum Inhibitory Concentration: MIC, Staphylococcus epidermidis 887E, Table 32, ratio of weight
[3] = test system: Escherichia coli TEM5 3739E; experiment: as above; type: cell-based; details: TEM53739E, 18 h, read-out: Minimum Inhibitory Concentration: MIC
[4] = test system: Klebsiella aerogenes 1976E; experiment: as above; type: cell-based; details: 18 h, Table 32, ratio of weight, read-out: Minimum Inhibitory Concentration: MIC
[5] = test system: Pseudomonas aeruginosa 10145; experiment: as above; type: cell-based; details: Pseudomonas aeruginosa, 10145, 18 h, Pseudomonas aeruginosa 10145, Table 32, ratio of weight; read-out: Minimum Inhibitory Concentration: MIC
Escherichia coli 10536 = experiment: as above; type: cell-based; details: Escherichia coli, 10536, 18 h, read-out: Minimum Inhibitory Concentration: MIC, Escherichia coli 10536, Table 32, ratio of weight
Micrococcus luteus 9341 = experiment: as above; type: cell-based; details: 18 h; Micrococcus luteus 9341, Table 32, ratio of weight; read-out: Minimum Inhibitory Concentration: MIC
[6] = test system: Klebsiella aerogenes 1082E; experiment: as above; type: cell-based; details: 18 h, Table 32, ratio of weight, read-out: Minimum Inhibitory Concentration: MIC
Escherichia coli 851E = experiment: as above; type: cell-based; details: 18 h, Table 32, ratio of weight, read-out: Minimum Inhibitory Concentration: MIC
[7] = test system: Salmonella thypimurium 14028; experiment: as above; type: cell-based; details: 18 h; Salmonella thypimurium 14028, Table 32, ratio of weight; read-out: Minimum Inhibitory Concentration: MIC
physchem = details: phosphate buffered solution
Bacillus subtilis 6633 = experiment: In vitro antibacterial activity (MIC, agar medium dilution), Biological Example 4; type: cell-based; details: 18 h; Bacillus subtilis 6633, Table 32, ratio of weight; read-out: Minimum Inhibitory Concentration: MIC
[8] = type: physicochemical
[9] = test system: Citrobacter diversus 2046E; experiment: In vitro antibacterial activity (MIC, agar medium dilution), Biological Example 4; type: cell-based; details: Citrobacter koseri, 18 h, Table 32, ratio of weight, read-out: Minimum Inhibitory Concentration: MIC
[10] = test system: Pseudomonas aeruginosa 1912E; experiment: as above; type: cell-based; details: 18 h, Table 32, ratio of weight, read-out: Minimum Inhibitory Concentration: MIC
[11] = test system: Staphylococcus aureus 241; experiment: as above; type: cell-based; details: Staphylococcus aureus, 241, 18 h, Staphylococcus aureus 241, Table 32, ratio of weight; read-out: Minimum Inhibitory Concentration: MIC
Escherichia coli 3190Y = experiment: as above; type: cell-based; details: 18 h, Table 32, ratio of weight, read-out: Minimum Inhibitory Concentration: MIC
[12] = test system: Streptococcus faecalis 29212; experiment: as above; type: cell-based; details: Enterococcus faecalis, 29212, 18 h, Streptococcus faecalis 29212, Table 32, ratio of weight; read-out: Minimum Inhibitory Concentration: MIC
Proteus vulgaris 6059 = experiment: as above; type: cell-based; details: 18 h; Proteus vulgaris 6059, Table 32, ratio of weight; read-out: Minimum Inhibitory Concentration: MIC
Enterobacter cloacae P99 = experiment: microbe, parasite or virus in culture; type: cell-based; details: P99, 18 h, read-out: Minimum Inhibitory Concentration: MIC
[13] = test system: Escherichia coli TEM9 2639E; experiment: In vitro antibacterial activity (MIC, agar medium dilution), Biological Example 4; type: cell-based; details: TEM92639E, 18 h, read-out: Minimum Inhibitory Concentration: MIC
[14] = Antibacterial activity of methanesulfonate and its hydrate; type: cell-based
[15] = test system: Enterobacter cloacae 1194E; experiment: microbe, parasite or virus in culture; type: cell-based; details: 18 h, read-out: Minimum Inhibitory Concentration: MIC
[16] = test system: Escherichia coli TEM3 3455E; experiment: In vitro antibacterial activity (MIC, agar medium dilution), Biological Example 4; type: cell-based; details: TEM33455E, 18 h, read-out: Minimum Inhibitory Concentration: MIC, Escherichia coli TEM3 3455E, Table 32, ratio of weight
[17] = test system: Acinetobacter calcoaceticus 15473; experiment: as above; type: cell-based; details: 18 h; Acinetobacter calcoaceticus 15473, Table 32, ratio of weight; read-out: Minimum Inhibitory Concentration: MIC
[18] = test system: Staphylococcus aureus giorgio; experiment: as above; type: cell-based; details: 18 h, Table 32, ratio of weight, read-out: Minimum Inhibitory Concentration: MIC
[19] = test system: Staphylococcus epidermidis 178; experiment: as above; type: cell-based; details: 18 h; Staphylococcus epidermidis 178, Table 32, ratio of weight; read-out: Minimum Inhibitory Concentration: MIC
test strains = experiment: In vitro antibacterial activity, overall finding, Biological Example 4; type: cell-based; details: Tables 31 and 32
Description: (§1) In order to determine the antibacterial activitiers of the E- and Z-isomner of the compound 180 which were separated in Example 203, and of 7- (4-aminomethyl-3-methyloxylminopyrrolidin-1-yl)-1-cyclopropyl-6-fluoro-4-oxo-1,4-dihydro-1,8-naphthyridine-3-carboxylic acid methanesulfonate prepared in Example 204, in vitro antibacterial activities of them were measured using agar medium dilution method. The results were as described in the following Tables 31 and 32.

Seratis marsecence 1826E = experiment: In vitro antibacterial activity (MIC, agar medium dilution), Biological Example 4; type: cell-based; details: 18 h, Table 32, ratio of weight, read-out: Minimum Inhibitory Concentration: MIC
Description: as §1

**Q.** For CON=C1CN(c2nc3c(cc2F)c(=O)c(C(=O)O)cn3C2CC2)CC1CN.CS(=O)(=O)O (centres unmarked) [Methanesulfonate, 7-(4-aminomethyl-3-methyloxyiminopyrrolidin-1-yl)-1-cyclopropyl-6-fluoro-4-oxo-1,4-dihydro-1,8-naphthyridine-3-carboxylic acid methanesulfonate], which MIC [1] is on record?
**A.** The MIC was 0.016 µg/mL.

**Q.** And the MIC (Staphylococcus aureus 77)?
**A.** The MIC was 0.031 µg/mL.

**Q.** What about the MIC [2] of the same molecule?
**A.** The MIC was 0.016 µg/mL.

**Q.** What about the MIC [3] of the same molecule?
**A.** The MIC was 0.13 µg/mL.

**Q.** What about the MIC [4] of the same molecule?
**A.** Its MIC is 0.13 µg/mL.

**Q.** And the MIC [5]?
**A.** Its MIC is 0.5 µg/mL.

**Q.** And the MIC (Escherichia coli 10536)?
**A.** Its MIC is 8 ng/mL.

**Q.** What about the MIC (Micrococcus luteus 9341) of the same molecule?
**A.** Its MIC is 0.13 µg/mL.

**Q.** And the MIC [6]?
**A.** The MIC was 0.031 µg/mL.

**Q.** What about the MIC (Escherichia coli 851E) of the same molecule?
**A.** The MIC was 0.016 µg/mL.

**Q.** And the MIC [7]?
**A.** The MIC was 0.031 µg/mL.

**Q.** And the solubility (physchem; pH 2, Water Solubility, phosphate buffered solution (pH 2))?
**A.** The solubility was > 20 mg/mL.

**Q.** What about the solubility (physchem; pH 7, Water Solubility, phosphate buffered solution (pH 7)) of the same molecule?
**A.** The solubility was > 30 mg/mL.

**Q.** And the MIC (Bacillus subtilis 6633)?
**A.** The MIC was 0.016 µg/mL.

**Q.** What about the solubility [8] of the same molecule?
**A.** The solubility was “excellent solubility”.

**Q.** And the MIC [9]?
**A.** The MIC was 0.031 µg/mL.

**Q.** What about the MIC [10] of the same molecule?
**A.** The MIC was 0.25 µg/mL.

**Q.** And the MIC [11]?
**A.** The MIC was 4 µg/mL.

**Q.** And the MIC (Escherichia coli 3190Y)?
**A.** Its MIC is 8 ng/mL.

**Q.** What about the MIC [12] of the same molecule?
**A.** Its MIC is 0.13 µg/mL.

**Q.** What about the MIC (Proteus vulgaris 6059) of the same molecule?
**A.** Its MIC is 0.25 µg/mL.

**Q.** What about the MIC (Enterobacter cloacae P99) of the same molecule?
**A.** Its MIC is 0.016 µg/mL.

**Q.** And the MIC [13]?
**A.** The MIC was 0.031 µg/mL.

**Q.** And the “water solubility compared with other salts and free form” value?
**A.** The value was “superior to that of the tartarate, the sulfurate, and the p-toluenesulfonate as well as the free form”.

**Q.** And the “antibacterial activity compared with the free form” value [14]?
**A.** Its value is “the same potent antibacterial activity as the free form”.

**Q.** And the MIC [15]?
**A.** The MIC was 0.031 µg/mL.

**Q.** And the MIC [16]?
**A.** Its MIC is 0.25 µg/mL.

**Q.** And the MIC [17]?
**A.** The MIC was 0.031 µg/mL.

**Q.** And the MIC [18]?
**A.** The MIC was 0.016 µg/mL.

**Q.** And the MIC [19]?
**A.** The MIC was 4 µg/mL.

**Q.** What about the antibacterial activity (test strains) of the same molecule?
**A.** Its antibacterial activity is “excellent antibacterial activity”.

**Q.** And the MIC (Seratis marsecence 1826E)?
**A.** The MIC was 0.13 µg/mL.
